Source: US6207656A, “Vitamin D analogues and their neuronal effects” (Cephalon, Inc., priority 1998, dated 2001)

What was measured:
[1] = Serum calcium in fimbria fornix lesioned rats; assay type: in vivo, Sprague Dawley rats; settings: oral gavage daily 14 days; data not shown
Experimental: For the fimbria fornix lesion studies, serum calcium was determined by the following method. Sprague Dawley rats (200-300 g) were dosed as described below. Blood was collected from the animals after sacrifice and allowed to clot at room temperature for 3-10 minutes; cells were pelleted in a clinical centrifuge.
The hippocampal ChAT activity is expressed as a percentage of the hippocampal ChAT activity of the […] control side (i.e., lesion control) in FIGS. 4 to 8.

[2] = Calcemic activity in rats, serum calcium after 7 days oral gavage; assay type: in vivo, LEW/MOL female rats; settings: for Calcium in Serum: Table 2A (vehicle 2.46 ± 0.06), ± S.D.
Experimental: For determining calcemic activity, LEW/MOL female rats (130-170 g) were administered test compounds daily for 7 days by oral gavage. Control rats received the vehicle. Each group consisted of 3 rats. Blood was collected by cardiac puncture on day 7.

[3] = system: NGF mRNA; experiment: Induction of NGF mRNA expression in rats; assay type: in vivo, Sprague Dawley rats; settings: 8 days (FIG. 1)
Experimental: Five hours after the last dose, the animals were sacrificed by decapitation. Each brain was quickly removed and chilled in ice-cold saline. The brain was cut into 2 mm thick coronal sections. Portions of the hippocampus, encompassing the CA1 region, and the medial septum were removed by punching 2 mm^3 sections using a calibrated tissue punch. Punched sections were immediately frozen on dry ice and then stored at -70° C. RNA was prepared from dissected tissue pieces.
Punches of tissue were homogenized in […] RNAzolB™ (Bioteex Laboratories, Houston, Tex.) using a homogenizer (Tekmar, Germany) until fully homogenized and then 250 μl RNAzilB™ was added. Typically, punches from the corresponding regions of brains of 2 to 3 animals were combined together. RNA was prepared as recommended by the manufacturer (Biotecx Laboratories). Following isopropanol precipitation, RNA was reprecipitated with ethanol and finally resuspended in 25-50 μL of water. Concentration of RNA was measured spectrophotometrically and the quality of RNA was visualized on a nondenaturing agarose gel. Equal amounts of RNA, usually 1-2 μg, were reverse transcribed using Superscript II™ (Gibco BRL), as recommended by the manufacturer. The assay was terminated by incubation at 95° C. 1 min. at 55-60° C. (depending on the primer set) and 2 min. at 72° C. […] After the assay, samples were electrophoresed on 5% nondenaturing acrylamide gels. Gels were dried and the resulting labeled bands were visualized on a phosphorimager (Storm 840, Molecular Dynamics, Sunnyvale, Calif.). The following primers were used: […]
Nerve Growth Factor (NGF). Primers were designed against the rat sequence.

Structure (SMILES): C=C1/C(=C\C=C2/CCC[C@]3(C)[C@@H]([C@@H](C)[C@@H](C#CCC(O)(CC)CC)OCC)CC[C@@H]23)C[C@@H](O)C[C@@H]1O [Compound (A), 1(S),3(R)-dihydroxy-20(R)-(1-ethoxy-5-ethyl-5-hydroxy-2-heptyn-1-yl)-9,10-seco-pregna-5(Z),7(E),10(19)-triene]
- serum calcium at doses giving the ChAT results [1]: low calcemic dose levels
- Calcium in Serum ([2]; 0.1 μg/kg/day p.o.): 2.52 ± 0.02 mmol/L
- Calcium in Serum ([2]; 1.0 μg/kg/day p.o.): 2.62 ± 0.02 mmol/L
- Calcium in Serum column: toxicity ([2]; 10 μg/kg/day p.o., Table 2A): toxic
- Calcemic Activity (%) ([2]; rat, in vivo, po): 24%
- calcemic classification ([2]; summary statement): exemplary of low calcemic vitamin D3 analogues
- production of NGF mRNA ([3]; 0.3 μg/kg oral): did not facilitate the production of NGF mRNA
- production of NGF mRNA ([3]; 1.0 and 3.0 μg/kg oral): facilitated the production of NGF mRNA
